Data published in patent US20260209705A1, “ENGINEERED NATURAL KILLER CELLS AND RELATED METHODS” (ASTELLAS PHARMA INC., priority 2022, published 2026).

T1: claudin 6 (CLDN6) (UniProt P56747)
T1 sequence (looked up): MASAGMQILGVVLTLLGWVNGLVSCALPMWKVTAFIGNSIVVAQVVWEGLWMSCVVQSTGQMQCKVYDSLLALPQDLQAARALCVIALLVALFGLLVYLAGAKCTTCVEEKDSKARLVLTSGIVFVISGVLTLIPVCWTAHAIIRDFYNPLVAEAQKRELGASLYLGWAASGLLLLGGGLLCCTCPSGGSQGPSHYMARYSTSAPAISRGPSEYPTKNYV


Legend:
[1] = tested on: human PSC-derived engineered NK cells; assay: effect of UM171 on NK differentiation (Step 2); format: cell-based; settings: 35 nM UM171 versus no UM171
Source text: FIGS. 2A-2C are bar graphs illustrating the cell yield (FIG. 2A), percentage of CD56+CD45^+ cells (FIG. 2B), and cell viability (FIG. 2C) resulting from the method of producing human PSC-derived engineered NK cells (FcR-UDC I-NK cells) described herein.
Parental and engineered UDC PSCs (collectively, “PSCs”) were thawed, expanded, and cultured in mTeSR™ (STEMCELL Technologies, Cambridge, MA) feeder-free, animal component-free media for up to seven days on vitronectin. The PSCs were dissociated into single cells and transferred into microwell plates and cultured in STEMdiff™ APEL™2 and Gibco® PFHM-II media (STEMCELL Technologies, Cambridge, MA; ThermoFisher Scientific, Waltham, MA) for fourteen days to differentiate into precursor cells (via embryoid bodies) capable of differentiating to hematopoietic cell types, endothelial cell types, and/or mesodermal derivatives. The media was supplemented with BMP4 (20 ng/ml), VEGF (20 ng/ml), and SCF (40 ng/ml). Half media changes were performed every other day starting on day 3. The embryoid bodies were replated on DLL4/Retronectin-coated T75 flasks to differentiate into NK cells. The embryoid bodies were cultured under feeder free conditions in differentiation media comprising SCF (20 ng/ml), IL-7 (20 ng/ml), IL-15 (10 ng/ml), Flt3L (10 ng/mL), IL-3 ([…]) and 35 nM UM171 for 21 days in modified DMEM/F12. […]

[2] = tested on: Raji (Burkitt's lymphoma) cells; assay: Raji i.p. tumor model, study of FIG. 23 (Table 2); format: in vivo, NSG mice; settings: single agent alone, compared to untreated
Experimental: FIG. 23 is a graphic of an efficacy study of FcR-UDC I-NK cells plus Rituximab in a Raji i.p. tumor model. NSG mice were irradiated and injected (i.p.) with Raji tumor cells (3×10^5). At day 4, FcR-UDC I-NK cells or PB-NK cells (each 5×10^6) with or without Rituximab (300 μg) was administered. At day 7, an additional dose of Rituximab (300 μg) was administered. Imaging/monitoring of the NSG mice occur at indicated time points through day 120.
FIGS. 24A-24C illustrate (FIG. 24A) a survival curve and (FIGS. 24B-24C) tumor burden following the efficacy study of FIG. 23. […] In FIGS. 24B-24C, FcR-UDC I-NK cells plus Rituximab and PB-NK plus Rituximab provided a durable response in delaying tumor onset through day 60 in 50% of the mice.
The efficacy of the UDC-NK cells against tumors in vivo was studied in a Raji intraperitoneal (i.p.) tumor model.
In FIG. 23, NSG mice were irradiated and injected i.p. with Raji (Burkitt's lymphoma) cells (3×10^5 cells). Raji cells are resistant to NK cells in the absence of an anti-CD20 antibody. At day four, 5×10^6 FcR-UDC I-NK cells and/or Rituximab (300 μg) was administered to the NSG mice. At day 7, a second dose of Rituximab (300 μg) was administered. […] The NSG mice were imaged and assessed for survival, BLI (tumor burden), and body weight and other health conditions at various days through day 121. […]

claudin 6 (CLDN6) = molecular target: T1, claudin 6 (CLDN6); assay: cell-based or functional assay

Row | Molecule | EC50 of ADCC (specific lysis of PA-1 cells by FcR-UDC I-NK cells, four-hour flow-based assay, antibody titrated) (claudin 6 (CLDN6)) [ng/mL] | further results
1 | Br.Br.Cn1nnc(-c2ccc3c(c2)[nH]c2nc(Cc4ccccc4)nc(N[C@H]4CC[C@H](N)CC4)c23)n1.O.O [UM171, (1r,4r)-N1-(2-benzyl-7-(2-methyl-2H-tetrazol-5-yl)-9H-pyrimidol [4,5-b]indol-4-yl)cyclohexane-1,4-diamine dihydrobromide dihydrate] | – | UDC-NK cell yield during NK differentiation [1]: improved UDC-NK cell yield
2 | Rituximab | – | mean survival [2]: increased mean survival
3 | ASP1893 mAb (antibody) | 4.32 | –
4 | ASP1650 (antibody, from another filing, V domains shown) VH: EVQLQQSGPELVKPGASMKISCKASGYSFTGYTMNWVKQSHGKNLEWIGLINPYNGGTIYNQKFKGKATLTVDKSSSTAYMELLSLTSEDSAVYYCARDYGFVLDYWGQGTTLTVSS VL: IVLTQSPAIMSASPGEKVTITCSASSSVSYLHWFQQKPGTSPKLWVYSTSNLPSGVPARFGGSGSGTSYSLTISRMEAEDAATYYCQQRSIYPPWTFGGGTKLEIKR | 8.49 | –
